Source: patent US12383545B1, “Treatment of migraine” (priority 2018, dated 2025)

System: ALT or AST
Assay: Example 5: postbaseline hepatic laboratory parameter values of clinical interest
Assay type: in vivo, human
Conditions: safety population; for Participants with Concurrent Elevations ALT or AST >=3 * ULN AND Bilirubin Total >=1.5 * ULN, n/N1 / Participants with Concurrent Elevations ALT or AST >=3 * ULN AND Bilirubin Total >=2 * ULN, n/N1 / Participants with Potential Hy's Law ALT or AST >=3 * ULN AND Bilirubin Total >=2 * ULN AND ALP <2 * ULN, n/N1: same day
Description: In a multicenter, randomized, double-blind, placebo-controlled, parallel-group study designed to evaluate the efficacy, safety, and tolerability of multiple doses and doses regimens of atogepant for the prevention of migraine. The patients were randomized (2:1:2:1:2:1) to 1 of 6 treatment groups: placebo, atogepant 10 mg QD, atogepant 30 mg QD, atogepant 30 mg BID, atogepant 60 mg QD, and atogepant 60 mg BID.
A total of 834 patients were randomized to double-blind treatment (ITT population), and 825 patients took at least 1 dose of double-blind IP (safety population). […] The primary efficacy variable was the change from baseline in mean monthly migraine/probable migraine headache days across the 12-week treatment period. The secondary efficacy variables were the change from baseline in mean monthly headache days across the 12-week treatment period, proportion of patients with at least a 50% reduction in mean monthly migraine/probable migraine headache days across the 12-week treatment period, and the change from baseline in mean monthly acute medication use days across the 12-week treatment period.

C[C@@H]1[C@H](c2c(F)ccc(F)c2F)C[C@H](NC(=O)c2cnc3c(c2)C[C@@]2(C3)C(=O)Nc3ncccc32)C(=O)N1CC(F)(F)F [atogepant]
Participants with postbaseline ALT or AST (U/L) >=5 * ULN, n/N1 (Atogepant 30 mg BID (N = 86)): 0 | Participants with postbaseline ALT or AST (U/L) >=10 * ULN, n/N1 (Atogepant 30 mg BID (N = 86)): 0 | Participants with postbaseline ALT or AST (U/L) >=20 * ULN, n/N1 (Atogepant 30 mg BID (N = 86)): 0 | Participants with Concurrent Elevations ALT or AST >=3 * ULN AND Bilirubin Total >=1.5 * ULN, n/N1 (Atogepant 30 mg BID (N = 86)): 0 | Participants with Concurrent Elevations ALT or AST >=3 * ULN AND Bilirubin Total >=2 * ULN, n/N1 (Atogepant 30 mg BID (N = 86)): 0 | Participants with Potential Hy's Law ALT or AST >=3 * ULN AND Bilirubin Total >=2 * ULN AND ALP <2 * ULN, n/N1 (Atogepant 30 mg BID (N = 86)): 0 | Participants with postbaseline ALT or AST (U/L) >=1 * ULN, (%) (Atogepant 30 mg QD (N = 183)): (17.8) % | Participants with postbaseline ALT or AST (U/L) >=1 * ULN, n/N1 (Atogepant 30 mg QD (N = 183)): 32/180 | Participants with postbaseline ALT or AST (U/L) >=1.5 * ULN, (%) (Atogepant 30 mg QD (N = 183)): (7.2) % | Participants with postbaseline ALT or AST (U/L) >=1.5 * ULN, n/N1 (Atogepant 30 mg QD (N = 183)): 13/180 | Participants with postbaseline ALT or AST (U/L) >=2 * ULN, (%) (Atogepant 30 mg QD (N = 183)): (3.3) % | Participants with postbaseline ALT or AST (U/L) >=2 * ULN, n/N1 (Atogepant 30 mg QD (N = 183)): 6/180 | Participants with postbaseline ALT or AST (U/L) >=3 * ULN, (%) (Atogepant 30 mg QD (N = 183)): (0.6) % | Participants with postbaseline ALT or AST (U/L) >=3 * ULN, n/N1 (Atogepant 30 mg QD (N = 183)): 1/180 | Participants with postbaseline ALT or AST (U/L) >=5 * ULN, n/N1 (Atogepant 30 mg QD (N = 183)): 0 | Participants with postbaseline ALT or AST (U/L) >=10 * ULN, n/N1 (Atogepant 30 mg QD (N = 183)): 0 | Participants with postbaseline ALT or AST (U/L) >=20 * ULN, n/N1 (Atogepant 30 mg QD (N = 183)): 0 | Participants with Concurrent Elevations ALT or AST >=3 * ULN AND Bilirubin Total >=1.5 * ULN, n/N1 (Atogepant 30 mg QD (N = 183)): 0 | Participants with Concurrent Elevations ALT or AST >=3 * ULN AND Bilirubin Total >=2 * ULN, n/N1 (Atogepant 30 mg QD (N = 183)): 0 | Participants with Potential Hy's Law ALT or AST >=3 * ULN AND Bilirubin Total >=2 * ULN AND ALP <2 * ULN, n/N1 (Atogepant 30 mg QD (N = 183)): 0 | Participants with postbaseline ALT or AST (U/L) >=1 * ULN, (%) (Atogepant 60 mg BID (N = 91)): (10.2) % | Participants with postbaseline ALT or AST (U/L) >=1 * ULN, n/N1 (Atogepant 60 mg BID (N = 91)): 9/88 | Participants with postbaseline ALT or AST (U/L) >=1.5 * ULN, (%) (Atogepant 60 mg BID (N = 91)): (1.1) % | Participants with postbaseline ALT or AST (U/L) >=1.5 * ULN, n/N1 (Atogepant 60 mg BID (N = 91)): 1/88 | Participants with postbaseline ALT or AST (U/L) >=2 * ULN, (%) (Atogepant 60 mg BID (N = 91)): (1.1) % | Participants with postbaseline ALT or AST (U/L) >=2 * ULN, n/N1 (Atogepant 60 mg BID (N = 91)): 1/88 | Participants with postbaseline ALT or AST (U/L) >=3 * ULN, (%) (Atogepant 60 mg BID (N = 91)): (1.1) % | Participants with postbaseline ALT or AST (U/L) >=3 * ULN, n/N1 (Atogepant 60 mg BID (N = 91)): 1/88 | Participants with postbaseline ALT or AST (U/L) >=5 * ULN, n/N1 (Atogepant 60 mg BID (N = 91)): 0 | Participants with postbaseline ALT or AST (U/L) >=10 * ULN, n/N1 (Atogepant 60 mg BID (N = 91)): 0 | Participants with postbaseline ALT or AST (U/L) >=20 * ULN, n/N1 (Atogepant 60 mg BID (N = 91)): 0 | Participants with Concurrent Elevations ALT or AST >=3 * ULN AND Bilirubin Total >=1.5 * ULN, n/N1 (Atogepant 60 mg BID (N = 91)): 0 | Participants with Concurrent Elevations ALT or AST >=3 * ULN AND Bilirubin Total >=2 * ULN, n/N1 (Atogepant 60 mg BID (N = 91)): 0 | Participants with Potential Hy's Law ALT or AST >=3 * ULN AND Bilirubin Total >=2 * ULN AND ALP <2 * ULN, n/N1 (Atogepant 60 mg BID (N = 91)): 0 | Participants with postbaseline ALT or AST (U/L) >=1 * ULN, (%) (Atogepant 60 mg QD (N = 186)): (13.8) % | Participants with postbaseline ALT or AST (U/L) >=1 * ULN, n/N1 (Atogepant 60 mg QD (N = 186)): 25/181 | Participants with postbaseline ALT or AST (U/L) >=1.5 * ULN, (%) (Atogepant 60 mg QD (N = 186)): (4.4) % | Participants with postbaseline ALT or AST (U/L) >=1.5 * ULN, n/N1 (Atogepant 60 mg QD (N = 186)): 8/181 | Participants with postbaseline ALT or AST (U/L) >=2 * ULN, (%) (Atogepant 60 mg QD (N = 186)): (2.8) % | Participants with postbaseline ALT or AST (U/L) >=2 * ULN, n/N1 (Atogepant 60 mg QD (N = 186)): 5/181 | Participants with postbaseline ALT or AST (U/L) >=3 * ULN, (%) (Atogepant 60 mg QD (N = 186)): (1.7) % | Participants with postbaseline ALT or AST (U/L) >=3 * ULN, n/N1 (Atogepant 60 mg QD (N = 186)): 3/181 | Participants with postbaseline ALT or AST (U/L) >=5 * ULN, (%) (Atogepant 60 mg QD (N = 186)): (0.6) % | Participants with postbaseline ALT or AST (U/L) >=5 * ULN, n/N1 (Atogepant 60 mg QD (N = 186)): 1/181 | Participants with postbaseline ALT or AST (U/L) >=10 * ULN, n/N1 (Atogepant 60 mg QD (N = 186)): 0 | Participants with postbaseline ALT or AST (U/L) >=20 * ULN, n/N1 (Atogepant 60 mg QD (N = 186)): 0 | Participants with Concurrent Elevations ALT or AST >=3 * ULN AND Bilirubin Total >=1.5 * ULN, n/N1 (Atogepant 60 mg QD (N = 186)): 0 | Participants with Concurrent Elevations ALT or AST >=3 * ULN AND Bilirubin Total >=2 * ULN, n/N1 (Atogepant 60 mg QD (N = 186)): 0 | Participants with Potential Hy's Law ALT or AST >=3 * ULN AND Bilirubin Total >=2 * ULN AND ALP <2 * ULN, n/N1 (Atogepant 60 mg QD (N = 186)): 0
